Like-named read-outs stand apart in the source and are kept apart here.
What was measured:
FGFR2 (N549H) = target: T1, FGFR2 (N549H) (Homo sapiens, UniProt P21802, N549H); experiment: fluorescent ELISA assay for inhibitors of FGFR2 kinase; type: biochemical; details: Pyk2 peptide substrate, 60 minutes
T1 construct: purchased Millipore 14-742
Experimental: The enzymatic assays described herein are conducted according to the following procedures from commercially available reagents. In one non-limiting example, a fluorescent ELISA assay is used to identify and characterize inhibitors of FGFR2 kinase as described herein. This heterogeneous assay utilizes a biotinylated peptide with a tyrosine motif as a substrate and an anti-phospho-tyrosine antibody to measure phosphorylation of the substrate. The reaction is initiated by adding the test compound, 37 μM Pyk2 substrate (Midwest Biotech, Cat. #MBT2383), 12.5 μM ATP (Roche, Cat. #11 140 965 001) and 0.5 μM FGFR2 enzyme (Millipore, Cat. #14-742) sequentially to a non-binding polypropylene V-well plate. All reagents are in an assay buffer consisting of: 50 mM Tris-HCL, 0.02 mg/ml BSA, 10 mM MgCl2, 0.1 mM Na3VO4, 1 mM EGTA, 75 μM ATP, 0.01% NP-40, 2 mM DTT and 10% glycerol. The reaction is incubated for 60 minutes. As the reaction proceeds, FGFR2 phosphorylates tyrosines in the peptide. The reaction mixture is then moved to a blocked streptavidin-coated Nunc Maxisorb plate (coated with 100 ng streptavidin from Pierce (Cat. #15-124) per well), allowing for the capture of the biotinylated peptide. Peptides are captured for 30 minutes at room temperature, the phosphorylation of peptides continues during this phase. The reaction is stopped by washing the streptavidin-coated plate 6 times with TBST. Phosphorylated peptide is detected by adding anti-phospho-tyrosine antibody (Cell Signaling, Cat. #9411, diluted 1:3000) to the streptavidin-coated plate. Unbound anti-phospho-tyrosine antibody is removed by washing the streptavidin-coated plate 6 times with TBST. Secondary detection is performed using alkaline phosphatase tagged goat anti-mouse antibody (Pierce, Cat. #31320, diluted 1:4000) for one hour. Unbound secondary antibody is removed by washing the streptavidin-coated plate 6 times with TBST. The fluorescent readout is initiated by adding to the streptavidin-coated plate Promega Attophos substrate (Promega, Cat. #S1000, dilution=6 mg/10 ml), which, when dephosphorylated by alkaline phosphatase, emits a fluorescent signal of 595 nm in wavelength when excited by a signal of 400 nm in wavelength. The reading of the 595 nm signal is done on the Perkin Elmer Envision system. Compounds which prevent FGFR2 from phosphorylating the peptide result in a lower fluorescent signal. The 595 nm fluorescent signal is directly proportional to the activity of FGFR2. Thus, the inhibition of FGFR2 by compounds is monitored by the decrease in the 595 nm fluorescent signal.

cancer cells = experiment: MTS cell growth inhibition assay (72 hours); type: cell-based
In short: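 Cells in DMEM with 1% FBS, seeded 18 h, then compound-treated 72 h at 37 °C. Viability by MTS/PMS for 4 h, formazan absorbance at 492 nm; IC50 taken as concentration giving 50% absorbance drop, activity banded by percent inhibition.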

[1] = Homo sapiens, DLD-1, 72 h, DLD-1 cells, read-out: DLD-1 MTS 72 hr at 10 μM
[2] = Homo sapiens, KATO III, 72 h, KATO III cells, read-out: KATO III MTS 72 hr at 10 μM
[3] = Homo sapiens, MDA-MB-231, 72 h, MDA-MB-231 cells, read-out: MDA-MB-231 MTS 72 hr at 10 μM
[4] = Homo sapiens, NCI-H1299, 72 h, NCI-H1299 cells, read-out: NCI-H1299 MTS 72 hr at 10 μM
[5] = PaCa-2, 72 h, PACA-2 cells, read-out: PACA-2 MTS 72 hr at 10 μM

T1 sequence (P21802 22-821 N549H): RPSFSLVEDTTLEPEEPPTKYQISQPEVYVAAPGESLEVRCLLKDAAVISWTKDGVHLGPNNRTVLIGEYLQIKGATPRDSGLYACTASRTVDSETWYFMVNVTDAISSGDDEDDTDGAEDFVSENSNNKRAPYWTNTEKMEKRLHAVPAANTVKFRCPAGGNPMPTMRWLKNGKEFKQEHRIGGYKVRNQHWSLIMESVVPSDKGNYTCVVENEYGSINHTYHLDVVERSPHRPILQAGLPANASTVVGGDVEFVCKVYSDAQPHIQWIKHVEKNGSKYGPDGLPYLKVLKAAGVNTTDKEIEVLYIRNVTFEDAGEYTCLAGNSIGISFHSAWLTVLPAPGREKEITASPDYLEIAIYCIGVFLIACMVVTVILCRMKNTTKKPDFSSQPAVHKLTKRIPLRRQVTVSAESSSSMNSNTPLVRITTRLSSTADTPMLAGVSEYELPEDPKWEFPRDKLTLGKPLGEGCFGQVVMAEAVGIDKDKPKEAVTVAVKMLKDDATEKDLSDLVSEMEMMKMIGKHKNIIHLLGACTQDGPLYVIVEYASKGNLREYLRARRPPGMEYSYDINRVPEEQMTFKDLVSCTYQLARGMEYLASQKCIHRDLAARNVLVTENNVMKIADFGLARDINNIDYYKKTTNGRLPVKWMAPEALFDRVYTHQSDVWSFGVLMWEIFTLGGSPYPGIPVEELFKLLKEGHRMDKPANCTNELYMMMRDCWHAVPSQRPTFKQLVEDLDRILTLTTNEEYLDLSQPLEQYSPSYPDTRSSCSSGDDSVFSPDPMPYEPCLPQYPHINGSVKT

SMILES | IC50 (FGFR2 (N549H)) | inhibition at 10 µM (cancer cells; [1]) | inhibition at 10 µM (cancer cells; [2]) | inhibition at 10 µM (cancer cells; [3]) | inhibition at 10 µM (cancer cells; [4]) | inhibition at 10 µM (cancer cells; [5])
Nc1nc(NC2Cc3ccccc3N(CCc3ccc(Cl)cc3Cl)C2)c2cn[nH]c2n1 (stereo not shown) [Compound 3, N^4-(1-(2-(2,4-dichlorophenyl)ethyl)-1,2,3,4-tetrahydroquinolin-3-yl)-1H-pyrazolo[3,4-d]pyrimidine-4,6-diamine] | 7830 nM | > 79% | > 79% | > 79% | > 79% | > 79%
Nc1nc(NC2Cc3ccccc3N(S(=O)(=O)c3ccccc3)C2)c2cn[nH]c2n1 (stereo not shown) [Compound 25, N4-(1-(phenylsulfonyl)-1,2,3,4-tetrahydroquinolin-3-yl)-1H-pyrazolo[3,4-d]pyrimidine-4,6-diamine] | 340 nM | < 50% | < 50% | < 50% | < 50% | < 50%
COc1ccccc1CN1CC(Nc2nc(N)nc3[nH]ncc23)Cc2ccccc21 (stereo not shown) [Compound 132, N4-[1-(2-methoxybenzyl)-1,2,3,4-tetrahydroquinolin-3-yl]-1H-pyrazolo[3,4-d]pyrimidine-4,6-diamine] | 22300 nM | < 50% | < 50% | < 50% | < 50% | < 50%
Nc1nc(NC2Cc3ccccc3N(S(=O)(=O)c3ccc(F)cc3F)C2)c2cn[nH]c2n1 (stereo not shown) [Compound 47, N4-(1-(2,4-difluorophenylsulfonyl)-1,2,3,4-tetrahydroquinolin-3-yl)-1H-pyrazolo[3,4-d]pyrimidine-4,6-diamine] | 390 nM | < 50% | < 50% | < 50% | < 50% | < 50%
Nc1nc(NC2Cc3ccccc3N(Cc3cccc(F)c3)C2)c2cn[nH]c2n1 (stereo not shown) [Compound 128, N4-[1-(3-fluorobenzyl)-1,2,3,4-tetrahydroquinolin-3-yl]-1H-pyrazolo[3,4-d]pyrimidine-4,6-diamine] | 2230 nM | < 50% | 50 to 79% | < 50% | < 50% | 50 to 79%
Nc1nc(NC2Cc3ccccc3N(Cc3ccc(F)c(F)c3)C2)c2cn[nH]c2n1 (stereo not shown) [Compound 124, N4-[1-(3,4-difluorobenzyl)-1,2,3,4-tetrahydroquinolin-3-yl]-1H-pyrazolo[3,4-d]pyrimidine-4,6-diamine] | 1330 nM |  |  |  |  | 
N#Cc1cccc(S(=O)(=O)N2CCC(Nc3nc(N)nc4[nH]ncc34)Cc3ccccc32)c1 (stereo not shown) [Compound 180, 3-({4-[(6-amino-1H-pyrazolo[3,4-d]pyrimidin-4-yl)amino]-2,3,4,5-tetrahydro-1H-1-benzazepin-1-yl}sulfonyl)benzonitrile] |  | < 50% | < 50% | < 50% | < 50% | < 50%
Nc1nc(NC2Cc3ccccc3N(C(=O)c3ccc(F)cc3F)C2)c2cn[nH]c2n1 (stereo not shown) [Compound 86, (3-(6-amino-1H-pyrazolo[3,4-d]pyrimidin-4-ylamino)-3,4-dihydroquinolin-1(2H)-yl)(2,4-difluorophenyl)methanone] |  | < 50% | < 50% | < 50% | < 50% | < 50%
CCc1ccc(S(=O)(=O)N2CCC(Nc3nc(N)nc4[nH]ncc34)Cc3ccccc32)cc1 (stereo not shown) [Compound 172, N4-{1-[(4-ethylphenyl)sulfonyl]-2,3,4,5-tetrahydro-1H-1-benzazepin-4-yl}-1H-pyrazolo[3,4-d]pyrimidine-4,6-diamine] |  | < 50% | < 50% | < 50% | < 50% | < 50%
Cc1ccc(C)c(CN2CC(Nc3nc(N)nc4[nH]ncc34)Cc3ccccc32)c1 (stereo not shown) [Compound 148, N4-[1-(2,5-dimethylbenzyl)-1,2,3,4-tetrahydroquinolin-3-yl]-1H-pyrazolo[3,4-d]pyrimidine-4,6-diamine] |  | > 79% | > 79% | 50 to 79% | 50 to 79% | > 79%
Cc1ccccc1Oc1cccc(S(=O)(=O)N2CC(Nc3nc(N)nc4[nH]ncc34)Cc3ccccc32)c1 (stereo not shown) [Compound 71, N4-(1-(3-(o-tolyloxy)phenylsulfonyl)-1,2,3,4-tetrahydroquinolin-3-yl)-1H-pyrazolo[3,4-d]pyrimidine-4,6-diamine] |  | > 79% | > 79% | > 79% | 50 to 79% | > 79%
Nc1nc(NC2Cc3ccccc3N(Cc3cc(Cl)ccc3C(F)(F)F)C2)c2cn[nH]c2n1 (stereo not shown) [Compound 163, N4-{1-[5-chloro-2-(trifluoromethyl)benzyl]-1,2,3,4-tetrahydroquinolin-3-yl}-1H-pyrazolo[3,4-d]pyrimidine-4,6-diamine] |  | > 79% | > 79% | > 79% | > 79% | > 79%
Nc1nc(NC2Cc3ccccc3N(C(=O)NCCc3cccc(Cl)c3)C2)c2cn[nH]c2n1 (stereo not shown) [Compound 106, 3-(6-amino-1H-pyrazolo[3,4-d]pyrimidin-4-ylamino)-N-(3-chlorophenethyl)-3,4-dihydroquinoline-1(2H)-carboxamide] |  | < 50% | < 50% | < 50% | < 50% | < 50%
Nc1nc(NC2Cc3ccccc3N(Cc3ccccc3Oc3ccccc3)C2)c2cn[nH]c2n1 (stereo not shown) [Compound 149, N4-[1-(2-phenoxybenzyl)-1,2,3,4-tetrahydroquinolin-3-yl]-1H-pyrazolo[3,4-d]pyrimidine-4,6-diamine] |  | > 79% | 50 to 79% | < 50% | < 50% | < 50%
Nc1nc(NC2Cc3ccccc3N(S(=O)(=O)c3cc(C(F)(F)F)ccc3Cl)C2)c2cn[nH]c2n1 (stereo not shown) [Compound 66, N4-(1-(2-chloro-5-(trifluoromethyl)phenylsulfonyl)-1,2,3,4-tetrahydroquinolin-3-yl)-1H-pyrazolo[3,4-d]pyrimidine-4,6-diamine] |  | < 50% | < 50% | < 50% | < 50% | < 50%
Nc1nc(NC2Cc3ccccc3N(S(=O)(=O)c3cccc(NC(=O)Nc4c(F)cc(Br)cc4F)c3)C2)c2cn[nH]c2n1 (stereo not shown) [Compound 206, 1-[3-({3-[(6-amino-1H-pyrazolo[3,4-d]pyrimidin-4-yl)amino]-3,4-dihydroquinolin-1(2H)-yl}sulfonyl)phenyl]-3-(4-bromo-2,6-difluorophenyl)urea] |  | < 50% | 50 to 79% | < 50% | < 50% | 50 to 79%
Nc1nc(NC2Cc3ccccc3N(S(=O)(=O)c3cccc(NC(=O)Nc4cccc(Cl)c4)c3)C2)c2cn[nH]c2n1 (stereo not shown) [Compound 201, 1-[3-({3-[(6-amino-1H-pyrazolo[3,4-d]pyrimidin-4-yl)amino]-3,4-dihydroquinolin-1(2H)-yl}sulfonyl)phenyl]-3-(3-chlorophenyl)urea] |  | > 79% | > 79% | > 79% | > 79% | > 79%
Nc1nc(NC2CCN(S(=O)(=O)c3ccc(OC(F)(F)F)cc3)c3ccccc3C2)c2cn[nH]c2n1 (stereo not shown) [Compound 185, N4-(1-{[4-(trifluoromethoxy)phenyl]sulfonyl}-2,3,4,5-tetrahydro-1H-1-benzazepin-4-yl)-1H-pyrazolo[3,4-d]pyrimidine-4,6-diamine] |  | < 50% | < 50% | < 50% | < 50% | < 50%

Reference: patent US8273754B2, “Substituted 1H-pyrazolo[3,4-D]pyrimidine-6-amine compounds” (ArQule, Inc., priority 2008, dated 2012)
